Laboratory results: US20250084138A1, “POLYPEPTIDE HAVING EFFECT OF INHIBITING PROLIFERATION OF LEUKEMIA CELLS” (NANJING FENGRUI BIOTECHNOLOGY CO., LTD, priority 2019, published 2025)
Peptide text beside a SMILES is read from it. * marks the point of attachment. Myristoyl = CCCCCCCCCCCCCC(=O)*

What was measured:
[1] = system: Baf-3 cells of normal mouse hematopoietic cells (mIL-3 dependent); conditions: Baf-3 normal mouse hematopoietic cells
[2] = system: Jurkat cells of acute T lymphocyte leukemia cell line (T-ALL); assay: Jurkat cells co-incubated with the polypeptide, cell counting; format: cell-based
Description: (§1) The selected experimental cells were: • K562 cells of human chronic myeloid leukemia cell line (CML); • Jurkat cells of acute T lymphocyte leukemia cell line (T-ALL); • THP-1 cells of acute myeloid leukemia cell line (AML); • Baf-3 cells of normal mouse hematopoietic cells (mIL-3 dependent).
(§2) This experiment was grouped into a normal control group, a polypeptide control group, and an experimental polypeptide group.
(§3) Firstly, the polypeptide of the present disclosure was co-incubated with 5*103 (marked as the third power of 10) leukemia tumor cells for 38 h, and the proliferation speed of the cells was detected by two methods of detecting proliferation of the cells (CCK-8) and cell counting, so as to observe the inhibitory effect of the polypeptide on the tumor cells.
(§4) Secondly, the polypeptide was co-incubated with the cells for 24 h, and then collected again, counted, and cultured with drug addition for 38 h, and then detected for the proliferation rate of the cells (CCK-8).
(§5) Each group included one blank (Control), one control peptide (C-p), and three target peptides (P-t, taking an average as the result)

[3] = system: K562 cells of human chronic myeloid leukemia cell line (CML); assay: K562 cells co-incubated with the polypeptide, cell counting; format: cell-based
Description: as §1, §2, §3, §4, §5

[4] = system: Baf-3 cells of normal mouse hematopoietic cells (mIL-3 dependent); assay: Baf-3 normal cells co-incubated with the polypeptide, cell counting; format: cell-based
Description: as §1, §2, §3, §4
Thirdly, we used normal mouse hematopoietic cells to carry out the same experiment as the above to observe the effect of the polypeptide on normal cells.
as §5

[5] = system: various leukemia cells; assay: Overall conclusion on proliferation of the three leukemia cell lines; format: cell-based; conditions: K562, Jurkat, THP-1; positive correlation with dosage and times of administration
Description: as §1, §3, §4
The leukemia subtypes represented by the aforementioned three leukemia cells have covered more than 70% of the number of leukemia patients.

[6] = system: THP-1 cells of acute myeloid leukemia cell line (AML); assay: Thp-1 cells co-incubated with the polypeptide, cell counting; format: cell-based
Description: as §1, §2, §3, §4, §5

With `CCCCCCCCCCCCCC(=O)N[C@@H](CCCCN)C(=O)N[C@@H](CCC(=O)O)C(=O)N[C@@H](CO)C(=O)N[C@@H](CCSC)C(=O)N[C@@H](CC(=O)O)C(=O)N[C@@H](C)C(=O)N[C@@H](CC(N)=O)C(=O)N[C@@H](CCCCN)C(=O)N1CCC[C@H]1C(=O)N[C@H](C(=O)N[C@@H](CCCCN)C(=O)N[C@@H](CC(N)=O)C(=O)N[C@@H](CC(C)C)C(=O)N1CCC[C@H]1C(=O)N[C@@H](CC(C)C)C(=O)N[C@@H](CCCCN)C(=O)N[C@@H](CCCCN)C(=O)N[C@H](C(=O)N1CCC[C@H]1C(=O)N[C@@H](CS)C(=O)N[C@@H](CCCCN)C(=O)N[C@H](C(=O)N[C@@H](CO)C(=O)N[C@@H](C)C(=O)N1CCC[C@H]1C(=O)N[C@@H](CO)C(=O)N[C@@H](CCC(N)=O)C(=O)N[C@@H](CO)C(=O)N[C@@H](Cc1ccccc1)C(=O)N[C@@H](Cc1ccccc1)C(=O)N[C@@H](C)C(=O)N[C@@H](CCCNC(=N)N)C(=O)N[C@@H](CC(=O)O)C(=O)N[C@@H](CC(N)=O)C(=O)N[C@H](C(=O)N[C@@H](C)C(=O)N[C@@H](CC(N)=O)C(=O)O)[C@@H](C)O)[C@@H](C)O)[C@@H](C)CC)[C@@H](C)O` [P-t] (Myristoyl-KESMDANKPTKNLPLKKIPCKTSAPSQSFFARDNTAN-OH) the “inhibitory effect on the proliferation of normal cells” value [1] was “no inhibitory effect”, the Cell count ([2]; 10 uM, 38 h, first experiment) was 106% and the Cell count ([2]; 15 uM, 24 + 38 h, first experiment) was 70.09 ± 18.75%. It also gave a Cell count ([2]; 15 uM, 24 + 38 h, second experiment) of 65.12%, a Cell count ([2]; 15 uM, 38 h, first experiment) of 69.55 ± 8.35 % and a Cell count ([2]; 15 uM, 38 h, second experiment) of 73.17%. The Cell count ([3]; K562, 10 uM, 24 + 38 h, first experiment) was 66.95%, the Cell count ([3]; K562, 10 uM, 38 h, first experiment) was 90.22 ± 28.17% and the Cell count ([3]; K562, 15 uM, 24 + 38 h, second experiment) was 70.09%. It also gave a Cell count ([3]; K562, 15 uM, 38 h, first experiment) of 69.55%, a Cell count ([3]; K562, 15 uM, 38 h, second experiment) of 80.00% and a Cell count ([4]; Baf-3, 10 uM, 24 + 38 h, first experiment) of 100.11%. It also gave a Cell count ([4]; Baf-3, 10 uM, 38 h, first experiment) of 99.98%, a Cell count ([4]; Baf-3, 15 uM, 24 + 38 h, second experiment) of 100.83% and a Cell count ([4]; Baf-3, 15 uM, 38 h, second experiment) of 100.41%. The “inhibition of the proliferation of various leukemia cells” value [5] was “obviously inhibit”, the Cell count ([6]; Thp-1, 10 uM, 38 h, first experiment) was 80.56% and the Cell count ([6]; Thp-1, 15 uM, 24 + 38 h, first experiment) was 63.75%. The Cell count ([6]; Thp-1, 15 uM, 24 + 38 h, second experiment) was 68.22%, the Cell count ([6]; Thp-1, 15 uM, 38 h, first experiment) was 63.17 ± 2.50% and the Cell count ([6]; Thp-1, 15 uM, 38 h, second experiment) was 70.09%.
